From patent US20220054658A1, “CONJUGATES” (Transfection Holdings Limited, priority 2018, published 2022) come the findings set out here.

One assay has as its system B. bovis Texas strain. As to the kind of experiment: Short-term uptake test in B. bovis infected RBCs (confocal microscopy). To be noted: 25 μM, 37° C., 45 min, ~5% PPE.
The next assay has as its system L. passim strain PRA-403. Put plainly: Lotmaria passim parasite uptake test. The assay is classed as cell-based. To be noted: 1 μM, room temperature, 45 min, microplate reader.
In the next assay the test system is C. elegans. Put plainly: Conjugate uptake in C. elegans (dye and praziquantel conjugates, fluorescence microscopy). The format is in vivo, Caenorhabditis elegans. In a few lines:
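Worms in M9 buffer were exposed to 50 μM compound from a DMSO stock at room temperature in the dark for 3 h. Other samples were incubated overnight at 20 °C with OP50, and praziquantel conjugates were also read at 24 and 72 h. Worms were washed, immobilised with sodium azide on agarose and imaged by fluorescence microscopy.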

The next assay has as its system P. falciparum. As to the kind of experiment: Plasmodium falciparum testing: uptake by infected and non-infected red blood cells. The format is cell-based. Particulars: 25 μM, 45 minutes, 37° C., synchronised stage and mix-stage cultures. Here is the method: Compounds 1, 5, 9, 10 and 11 were tested for uptake in both synchronised stage and mix-stage cultures at 25 μM concentrations.

In assay [1] the test system is gastrointestinal system (crop, midgut and rectum) of adult honey bees. Put plainly: Honey bee gut uptake test. The arrangement: species or system Apis mellifera. Particulars: 100 μM, 33° C., 45 min. The procedure: Honey bee (A. mellifera) hives were obtained and allowed to feed ab libitum spring to autumn. During the winter period, pollen mixed with 50% (v/v) sucrose was added to the honey bee hives in order to provide sufficient food. Honey bees were dissected and gastrointestinal system was removed including the crop, midgut and rectum, and added immediately to 500 μL of the delivery vehicle to be tested sample diluted with PBS at 100 μM final concentration or DMSO (0.1%) control. The mixture was incubated for 45 min at 33° C.
The gastrointestinal system (crop, midgut and rectum) of adult honey bees was extracted, and incubated with derivatives 1, 2, 8 and 11 at 100 μM and 33° C. for 45 min.

Experimental for B. bovis Texas strain: The parasite culture was centrifuged and washed once with GIT medium. RBC's were pellet down, and 20 μl infected RBC mixture (10 μl packed infected RBC+10 μl GIT) was prepared. Then, 180 μl GIT medium with compound the compound to be evaluated (final concentration 25 μM for BODIPY derivatives and 100 μM for phiLOV derivatives) or DMSO (0.1%)/PBS control was added. The samples were incubated for 45 min at 37° C. (Samples were stained 1 μg/mL diluted Hoechst 33342 in GIT medium). After incubation, the samples were centrifuged and the pellet was washed with GIT medium (3×). A final solution of 50% haematocrit infected RBC mixture was transferred to slides to be observed by confocal laser microscopy (Nikon A1).
Uptake experiments were performed by incubating the parasite (˜5% Parasitized Erythrocytes (PPE)) with each derivative at 25 μM and 37° C. for 45 min. After incubation, the fluorescence intensities were calculated from confocal microscope images.
The phiLOV double mutant (R475G, K476C) was used to generate derivatives P11, P1, P8, and P3 which were tested for uptake in B. bovis Texas strain using phiLOV as a control. The derivatives and the control were incubated at 100 μM and 37° C. for 45 min. After incubation, the samples were analysed under confocal microscopy using Hoeschst 33342 (Thermofisher) as co-stain.

With `CC1=CC(C)=[N+]2C1=Cc1ccc(CCCn3cc(CCNC(=O)/C=C/NC(=O)[C@@H]4OC(C)(C)OCC4(C)C)nn3)n1[B-]2(F)F` [Compound 1, (R,E)-N-((((3-[4,4-Difluoro-5,7-dimethyl-4-bora-3a,4a-diaza-s-indacene-3-yl]propyl)-1H-1,2,3-triazol-4-yl)ethylamino)-3-oxoprop-1-enyl)-2,2,5,5-tetramethyl-1,3-dioxane-4-carboxamide], the “uptake in RBCs infected with B. bovis (fluorescence intensity from confocal images)” value with B. bovis Texas strain is recorded as “highest uptake”. In addition, the “fluorescence relative to derivative 2” value in the assay on L. passim strain PRA-403 is “approximately % of the fluorescence of derivative 2”. In the assay with C. elegans (50 μM, 3 h incubation), the “uptake compared to other compounds” value is “largest uptake observed compared to compounds 2 to 8”; the “uptake: location of fluorescence in C. elegans” value is “observed in the pharynx, gut lumen and gut cells of both adults and larval stages”. Also, the “uptake: location of fluorescence in C. elegans” value in the assay with C. elegans (50 μM, 20 h / overnight incubation) is “strong fluorescence was localised in the pharynx, gut lumen and gut cells of both adults and larvae”. Further, the “distribution in C. elegans” value in the assay with C. elegans (FIG. 2(h), fluorescence microscopy) is recorded as “distributed throughout the nematode”. Also, in the assay with P. falciparum, the “uptake by infected and non-infected red blood cells” value is given as “not taken up either by infected nor non-infected red blood cells in every culture”. The “fluorescence in honey bee gut (crop, midgut, rectum)” value in assay [1] was “high fluorescence in the midgut and rectum, but not the crop”.
